Results published in article PMC6982547 (Leukemia & lymphoma, 2019).
Like-named read-outs stand apart in the source and are kept apart here.

Tests used:
clinical = conditions: human, in vivo; for AUC: AUC0-tau; for half-life: t½
[1] = test system: patients with relapsed/refractory lymphoid malignancies; experiment: Phase 1 safety and tolerability: DLTs, MTD/RP2D, adverse events; assay type: in vivo, human
[2] = human, in vivo
[3] = previously published data; cited from earlier work
follicular lymphoma = conditions: single agent, two phase 2 studies; cited from earlier work
[4] = Alisertib pharmacokinetics in plasma; assay type: in vivo, human; conditions: Schedule I, vorinostat 200 mg, alisertib 30 mg, day 7, N=1
[5] = cited from earlier work

Structure (SMILES): O=C(CCCCCCC(=O)Nc1ccccc1)NO [Vorinostat]
- AUC (clinical; 20 mg): 1030 ng·h/mL
- Cmax (clinical; 20 mg): 318 ng/mL
- Tmax (clinical; 20 mg): 2.25 h
- half-life (clinical; 20 mg): 2.16 h
- AUC (clinical; 30 mg): 1850 ng·h/mL
- Cmax (clinical; 30 mg): 560 ng/mL
- Tmax (clinical; 30 mg): 2.42 h
- AUC (clinical; 40 mg): 956 ng·h/mL
- Cmax (clinical; 40 mg): 335 ng/mL
- Tmax (clinical; 40 mg): 0.98 h
- half-life (clinical; 40 mg): 2.31 h
- AUC (clinical; 200 mg): 1030 ng·h/mL
- Cmax (clinical; 200 mg): 391 ng/mL
- half-life (clinical; 200 mg): 2.19 h
- half-life (clinical): 2.3 h
- MTD of the combination, vorinostat dose ([1]; BID, with 20 mg alisertib BID, intermittent dosing Schedule II): 200 mg
- recommended phase 2 dose (RP2D) of the combination, vorinostat dose ([1]; bid, intermittent schedule): 200 mg
- t½ ([2]; 30 mg): 2.38 (0.97) h
- AUC0-tau ([2]; 200 mg): 1.10 (0.44) μg/mL•h
- clearance [3]: 271 L/h
- overall response rate (follicular lymphoma): 47-49%

Structure (SMILES): COc1cc(Nc2ncc3c(n2)-c2ccc(Cl)cc2C(c2c(F)cccc2OC)=NC3)ccc1C(=O)O [Alisertib]
- MTD of the combination, alisertib dose ([1]; BID, with 200 mg vorinostat BID, intermittent dosing Schedule II): 20 mg
- recommended phase 2 dose (RP2D) of the combination, alisertib dose ([1]; bid, intermittent schedule): 20 mg
- Cl/F [4]: 1.68 L/h
- half-life ([5]; previous reports): 14.9 h
- apparent clearance ([5]; previously published population estimate): 4.25 L/h
